Reference: patent US8975397B2, “Solid forms” (Hoffmann-La Roche Inc., priority 2011, dated 2015)
In brackets after ≈: the same amount, converted by molar mass. Entries after “also recorded” stand apart in the source; their conditions may differ. Like-named read-outs stand apart in the source and are kept apart here. One block for each compound: values may come before it.

Tests used:
[1] = Thermodynamic stability of polymorphs; type: physicochemical
Text: The term “monotropy” denotes the relationship between two or more crystal forms of the same substance in which the rank order of thermodynamic stabilities of the polymorphs is retained at all temperatures below the melting point.

[2] = Temperature Controlled XRPD / heating: solid form change; type: physicochemical; conditions: for solid form changes at elevated temperature: Temperature Controlled XRPD
Method: Temperature Controlled XRPD analyses of Form B show a phase transition to Form A at elevated temperature. In the temperature range 105-135° C. only Form A is present. In the temperature range of 65-95° C. an intermediate state is observed that is characterized by significant changes in peak positions.

[3] = Hygroscopicity (European Pharmacopoeia classification); type: physicochemical; conditions: for hygroscopicity: mass increase 0% rH to 90% rH
Text: The term “hygroscopicity” describes the ability of a solid material to adsorb moisture. The hygroscopicity of a given API is characterized [European Pharmacopoeia—6th Edition (2008), Chapter 5.11) by the increase in mass when the relative humidity is raised from 0% rH to 90% rH: • non-hygroscopic: weight increase Δm<0.2%; • slightly hygroscopic: weight increase 0.2%≦Δm<2.0%; • hygroscopic: weight increase 2.0%≦Δm<15.0%; • very hygroscopic: weight increase Δm≧15.0%; • deliquescent: sufficient water is adsorbed to form a liquid.

[4] = Solid form stability towards humidity and water (storage, Humidity Controlled XRPD); conditions: for relative humidity at which Form B dehydrates into Form E: storage / Humidity Controlled XRPD, monohydrate; for phase change upon storage at 100% rH: ambient temperature (Form C: e.g. 30 days)
Method: Humidity Controlled XRPD analyses were performed in reflection geometry with a Siemens D5000 Diffractometer (Cu radiation source, NiK beta filter, Scintillation detector, angular range 3° to 42° 2Theta, approximately 180 minutes total measurement time per humidity level). The diffractometer is equipped with an MR1 (Materials Research Instruments) humidity chamber. The humidity within the chamber is adjusted with an ANSYCO humidity controller (SYCOS H-HOT).
50 mg of Form B was subjected to dehydration/hydration cycles.

[5] = In vitro dissolution in miniaturized system (SGF, FeSSIF); type: physicochemical; conditions: comparison with Form B
Method: FIG. 21 illustrates the mean in vitro dissolution profiles in SGF. Mean in vitro dissolution profiles of micronized powders of Form A (∘), Form B (▾), Form C (▪) and γ-CD inclusion complex (Δ) in SGF at room temperature. Measurements were performed in triplicate (n=3).
FIG. 22 illustrates the mean in vitro dissolution profiles in FeSSIF. Mean in vitro dissolution profiles of micronized powders of Form A (∘), Form B (▾), Form C (▪) and γ-CD inclusion complex (Δ) in FeSSIF at room temperature. Measurements were performed in triplicate (n=3).
The in vitro dissolution studies performed in this work were conducted in a miniaturized system with 100 mL dissolution medium per experiment. In comparison to the 1000 mL vessels of the conventional USP apparatus the experimental set-up that was used here was scaled-down and simplified (magnetic stirring instead of paddles, room temperature instead of 37° C.). […] Simulated gastric fluid (SGF) was prepared with 2 g/L NaCl and 1 g/L Triton® X-100 in 0.1 N HCl. The resulting measured pH of SGF was 1.2.
Oral absorption of a drug compound from a solid dosage form is dependent on dissolution rate and solubility. In the present work the in vitro dissolution of the γ-CD inclusion complex was compared to micronized powders of polymorph Form A, Form B and Form C. […]

[6] = Text: FIG. 20 illustrates the phase solubility diagram of (1,1-dioxo-1λ^6-thiomorpholin-4-yl)-{6-[3-(4-fluoro-phenyl)-5-methyl-isoxazol-4-ylmethoxy]-pyridin-3-yl}-methanone and γ-CD. The API solubility is shown in [μg/mL].
Phase solubility diagrams are used to characterize complex formation between two compounds and represent the solubility of the API as a function of the cyclodextrin concentration. […] Anal. Chem. Instrum. (1965) 4:117-212] and Brewster [M E. Brewster et al. Adv. Drug Delivery Rev. (2007) 59:645-666] (FIG. 20).
Anal. Chem. Instrum. (1965) 4:117-212]:
[formula] […] The binding constant (K) is a measure of the affinity of the API to enter the relatively apolar cavity of the CD.

[7] = Biopharmaceutical classification system (BCS); type: physicochemical
Text: The compound of formula (I), its manufacture, its pharmacological activity as inverse agonists of the GABA A α5 receptor, and its use for the treatment, prevention and/or delay of progression of various central nervous system (CNS) conditions have been described in WO 2009/071476. […] Res. (1995) 12:413-420].

[8] = Temperature Controlled XRPD of Form B

SMILES: Cc1onc(-c2ccc(F)cc2)c1COc1ccc(C(=O)N2CCS(=O)(=O)CC2)cn1 [Form A, (1,1-dioxo-1λ^6-thiomorpholin-4-yl)-{6-[3-(4-fluoro-phenyl)-5-methyl-isoxazol-4-ylmethoxy]-pyridin-3-yl}-methanone]
thermodynamic stability of the polymorph [1]: metastable
thermodynamic stability of the polymorph ([1]; listed as form A): only metastable
solid form changes at elevated temperature [2]: do not show solid form changes

SMILES: Cc1onc(-c2ccc(F)cc2)c1COc1ccc(C(=O)N2CCS(=O)(=O)CC2)cn1 [Form B, (1,1-dioxo-1λ^6-thiomorpholin-4-yl)-{6-[3-(4-fluoro-phenyl)-5-methyl-isoxazol-4-ylmethoxy]-pyridin-3-yl}-methanone monohydrate]
hygroscopicity ([3]; monohydrate): hygroscopic (weight increase 2.0%≦Δm<15.0%)
temperature range in which an intermediate state is observed [2, 8]: 65-95 °C
temperature range in which only Form A is present [2, 8]: 105-135 °C
temperature of transformation into Form A upon heating ([2]; heating): > 100 °C
stability in the presence of humidity ([4]; e.g. at ambient conditions, compared to Form A): substantially increased as compared to Form A
relative humidity at which Form B dehydrates into Form E ([4]; listed as form B): 0 % rH
relative humidity at which Form B dehydrates into Form E [4]: < 5 % rH

SMILES: Cc1onc(-c2ccc(F)cc2)c1COc1ccc(C(=O)N2CCS(=O)(=O)CC2)cn1 [Form C, (1,1-dioxo-1λ^6-thiomorpholin-4-yl)-{6-[3-(4-fluoro-phenyl)-5-methyl-isoxazol-4-ylmethoxy]-pyridin-3-yl}-methanone]
solubility in simulated gastric fluid (SGF) [5]: considerably improved as compared to Form B
hygroscopicity compared to Form A ([3]; comparison): less hygroscopic than Form A
thermodynamic stability of the polymorph [1]: more stable than Form A; also recorded: most stable polymorph overall
solid form changes at elevated temperature [2]: do not show solid form changes
phase change upon storage at 100% rH [4]: does not induce this phase change
phase change in the presence of water ([4]; suspended state): transforms into Form B

SMILES: Cc1onc(-c2ccc(F)cc2)c1COc1ccc(C(=O)N2CCS(=O)(=O)CC2)cn1 [amorphous Form, (1,1-dioxo-1λ^6-thiomorpholin-4-yl)-{6-[3-(4-fluoro-phenyl)-5-methyl-isoxazol-4-ylmethoxy]-pyridin-3-yl}-methanone]
hygroscopicity [3]: slightly hygroscopic (weight increase 0.2%≦Δm<2.0%)
phase change upon storage at 100% rH [4]: no phase transformation has been observed

Continued, values first:

relative humidity at which Form E reconverts (rehydrates) into Form B ([4]; exposure to humidity): > 5 % rH
SMILES: Cc1onc(-c2ccc(F)cc2)c1COc1ccc(C(=O)N2CCS(=O)(=O)CC2)cn1 [Form E, (1,1-dioxo-1λ^6-thiomorpholin-4-yl)-{6-[3-(4-fluoro-phenyl)-5-methyl-isoxazol-4-ylmethoxy]-pyridin-3-yl}-methanone]

phase solubility diagram type [6]: BS-type behavior
aqueous solubility ([7]; BCS): low
permeability ([7]; BCS): high
BCS class ([7]; biopharmaceutical classification system): BCS 2
SMILES: Cc1onc(-c2ccc(F)cc2)c1COc1ccc(C(=O)N2CCS(=O)(=O)CC2)cn1 [compound of formula (I), (1,1-Dioxo-1λ^6-thiomorpholin-4-yl)-{6-[3-(4-fluoro-phenyl)-5-methyl-isoxazol-4-ylmethoxy]-pyridin-3-yl}-methanone]

solubility limit in aqueous solution [6]: 150 mM (≈ 195 mg/mL)
SMILES: OC[C@H]1O[C@@H]2O[C@H]3[C@H](O)[C@@H](O)[C@@H](O[C@H]4[C@H](O)[C@@H](O)[C@@H](O[C@H]5[C@H](O)[C@@H](O)[C@@H](O[C@H]6[C@H](O)[C@@H](O)[C@@H](O[C@H]7[C@H](O)[C@@H](O)[C@@H](O[C@H]8[C@H](O)[C@@H](O)[C@@H](O[C@H]9[C@H](O)[C@@H](O)[C@@H](O[C@H]1[C@H](O)[C@H]2O)O[C@@H]9CO)O[C@@H]8CO)O[C@@H]7CO)O[C@@H]6CO)O[C@@H]5CO)O[C@@H]4CO)O[C@@H]3CO [γ-cyclodextrin]
